Measured values published in patent US20110152267A1, “Compositions and Methods for Treating Hyperproliferative Disorders” (Texas Tech University System, priority 2009, published 2011).

Tests used:
Assay type in all cases: cell-based, human
[1] = system: OE-19 esophageal adenocarcinoma cell line; test: DIMSCAN cytotoxicity, fenretinide + L-threo-sphinganines 3:1 (Example B19)
Experimental: (§1) Cytotoxicity Assay—Once again, cytotoxicity is determined using the DIMSCAN assay system (R. Proffitt et al., Cytometry 24, 204-213 (1996); T. Frgala et al., Mol Cancer Ther. 6:886-97, 2007). The system employs digital imaging microscopy to quantify viable cells, which selectively accumulate fluorescein diacetate to become brightly fluorescent. The system is capable of measuring cytotoxicity over a 4-5 log dynamic range by quenching the residual fluorescence of dead and dying cells with eosin Y and quantifying the total fluorescence of viable cells using digital thresholding. Measured fluorescence is directly proportionate to the number of viable cells. A comparison of the total fluorescence of a drug-treated cell population to the fluorescence of a similar number of untreated cells yields a survival fraction. In brief, 2000 to 10,000 cells/well (depending on size and growth rates) are replicate plated into 60 wells of a 96-well tissue culture plate in 0.1 mL of whole medium and allowed to attach overnight. Drug(s) are then added in 0.05 mL of whole medium to the final concentrations indicated. Drugs (fenretinide, and various chain length L-threo-sphinganines) were tested both as single agents and in a 3:1 ratio of fenretinide:sphinganine. C18-L-threo-sphinganine, or “safingol,” was also tested and results shown for reference. There are 12 wells treated per drug concentration. Twelve wells receive drug vehicle-only to the appropriate final concentration and serve as controls for the plate. Cells are incubated for 96 hours at 37° C. in ambient air with 5% CO2. Fluorescein diacetate is then added to each well in 0.05 mL media to a final concentration of 8 microgram/mL. Cells are incubated for a further 15 minutes at 37° C. and 0.03 mL of 0.5% eosin Y is added to each well. Total fluorescence of viable cells is then measured by digital imaging microscopy. Results were graphed as the ratio of the fluoresecence of drug-treated wells to non-drug treated control wells (i.e., Survival Fraction). All tests were performed at least twice. Representative results are shown.
(§2) The Combination Index (CI) is a term to describe mathematical modeling of the pharmacologic effects on cytotoxicity (cell death) of two drugs in combination based. Cytotoxic “synergy” is defined as a cell death affect which is greater than would be expected from a simple product of the single agent cytotoxicities alone (i.e. an “additive” effect). By Chou-Talalay analysis, a CI<0.9 on a Fraction Affected (“Fa”, i.e. fraction of cells killed) indicates synergy, with smaller numbers indicating greater synergy; a CI of 0.9-1.1 signifies an additive or near-additive effect; and a CI>1.1 means the drug combination is antagonistic.
(§3) Fenretinide and L-threo-sphinganines tested in human esophageal adenocarcinoma (esophagus cancer) cell lines, OE-19 and OE-33.

[2] = system: OE-33 esophageal adenocarcinoma cell line; test: as above
Experimental: as §1, §2, §3

[3] = system: CHLA-266 brain cancer (PNET) cell line; test: DIMSCAN cytotoxicity dose-response with fenretinide (Examples A, FIGS. 2, 8, 13); conditions: 2% oxygen, at one or more doses, +96 hrs
Experimental: Cytotoxicity Assay: Cytotoxicity in cell lines was determined using a fluorescence-based assay employing digital imaging microscopy (DIMSCAN)(after Fragala, et al, Mol Cancer Ther, 6:886-897, 2007). DIMSCAN quantitates viable cells which selectively accumulate fluorescein diacetate and is capable of measuring cytotoxicity over a 4-5 log dynamic range by quantifying total fluorescence per well (which is proportional to viable, clonogenic cells) after eliminating background fluorescence using digital thresholding and eosin Y quenching. Briefly, cell lines were seeded into 96-well plates in 100 µL of complete culture medium (10-20% serum) per well. Cells were incubated overnight in 2%, 5% or 20% oxygen (room air) prior to addition of drugs in […] volumes of complete medium to various final drug concentrations in replicates of 12 wells per concentration. In assays employing D-threo-PPMP, PPMP was employed at a fixed, minimally-toxic, final concentration of 10 μM in each well. Control wells received ethanol (final concentration=0.12%-0.20%) in complete medium equivalent to the maximum final ethanol concentration of drug-treated wells. Plates were incubated at various oxygen concentrations to simulate physiological hypoxia (i.e., 2% oxygen=typical solid tumor oxygen levels; 5%=bone marrow oxygen levels for leukemias; 20% room air=supraphysiological oxygen for comparison with typical laboratory culture conditions). Plates were assayed at 3-4 days after initiating drug exposure depending on the growth properties of each cell line, to allow for maximum cell death and outgrowth of surviving cells. To measure cytotoxicity, FDA (stock solution of 1 mg/ml in DMSO) was added, in 50 µL of complete medium per well, to a final concentration of 10 µg/ml. The plates were incubated for an additional 15-30 minutes at 37 C and then 30 µL of eosin Y (0.5% in normal saline) was added per well. Total fluorescence of each well was then measured using digital imaging microscopy. […]

[4] = system: CHLA-90 pediatric neuroblastoma cell line; test: DIMSCAN cytotoxicity, fenretinide + L-threo-sphinganines 3:1 (Example B21)
Experimental: as §1, §2
Fenretinide and L-threo-sphinganines tested in human pediatric neuroblastoma (a nerve-related, solid tumor cancer) cell line, CHLA-90.

[5] = system: GBM2 glioblastoma brain cancer cell line; test: DIMSCAN cytotoxicity dose-response with fenretinide, with or without D-threo-PPMP (Examples A, FIGS. 3, 9, 14, 18-20); conditions: +96 hrs; for C.I. of D-threo-PPMP with fenretinide+L-threo-sphinganine (three drug combination): 2% oxygen, D-threo-PPMP fixed 10 uM, at most doses; for C.I. (Combination Index) with fenretinide: at one or more doses
Experimental: Cytotoxicity Assay: Cytotoxicity in cell lines was determined using a fluorescence-based assay employing digital imaging microscopy (DIMSCAN)(after Fragala, et al, Mol Cancer Ther, 6:886-897, 2007). DIMSCAN quantitates viable cells which selectively accumulate fluorescein diacetate and is capable of measuring cytotoxicity over a 4-5 log dynamic range by quantifying total fluorescence per well (which is proportional to viable, clonogenic cells) after eliminating background fluorescence using digital thresholding and eosin Y quenching. Briefly, cell lines were seeded into 96-well plates in 100 µL of complete culture medium (10-20% serum) per well. Cells were incubated overnight in 2%, 5% or 20% oxygen (room air) prior to addition of drugs in […] volumes of complete medium to various final drug concentrations in replicates of 12 wells per concentration. In assays employing D-threo-PPMP, PPMP was employed at a fixed, minimally-toxic, final concentration of 10 μM in each well. Control wells received ethanol (final concentration=0.12%-0.20%) in complete medium equivalent to the maximum final ethanol concentration of drug-treated wells. Plates were incubated at various oxygen concentrations to simulate physiological hypoxia (i.e., 2% oxygen=typical solid tumor oxygen levels; 5%=bone marrow oxygen levels for leukemias; 20% room air=supraphysiological oxygen for comparison with typical laboratory culture conditions). Plates were assayed at 3-4 days after initiating drug exposure depending on the growth properties of each cell line, to allow for maximum cell death and outgrowth of surviving cells. To measure cytotoxicity, FDA (stock solution of 1 mg/ml in DMSO) was added, in 50 µL of complete medium per well, to a final concentration of 10 µg/ml. The plates were incubated for an additional 15-30 minutes at 37 C and then 30 µL of eosin Y (0.5% in normal saline) was added per well. Total fluorescence of each well was then measured using digital imaging microscopy.
FIGS. 1 to 26 illustrate the effect (Examples A1 through A26) of the claimed invention and were carried out using the procedures disclosed herein.

[6] = system: NCI-H-1792 lung adenocarcinoma cell line; test: DIMSCAN cytotoxicity, fenretinide + L-threo-sphinganines 3:1 (Example B12); conditions: 96 h
Experimental: as §1, §2
Fenretinide and L-threo-sphinganines tested in human lung adenocarcinoma (lung cancer) cell line, NCI-H-1792.

[7] = 4-HPR 1.5 μM + L-threo-sphinganine 0.5 μM
[8] = 4-HPR 3 μM + L-threo-sphinganine 1 μM
[9] = 4-HPR 6 μM + L-threo-sphinganine 2 μM
[10] = 4-HPR 9 μM + L-threo-sphinganine 3 μM
[11] = 4-HPR 12 μM + L-threo-sphinganine 4 μM

| SMILES | CI [1, 7] | Fa [1, 7] | CI [1, 8] | Fa [1, 8] | CI [1, 9] | Fa [1, 9] | CI [1, 10] | Fa [1, 10] | CI [2, 7] | Fa [2, 7] | CI [2, 8] | Fa [2, 8] | CI (Combination Index) [6, 7] | Fa (fraction affected) [6, 7] | CI (Combination Index) [6, 8] | Fa (fraction affected) [6, 8] | CI (Combination Index) [6, 9] | Fa (fraction affected) [6, 9] | CI (Combination Index) [6, 10] | Fa (fraction affected) [6, 10] | further results |
| --- | --- | --- | --- | --- | --- | --- | --- | --- | --- | --- | --- | --- | --- | --- | --- | --- | --- | --- | --- | --- | --- |
| CCCCCCCCCCCCCCCCC[C@H](O)[C@@H](N)CO [C20, (2S,3S)-2-amino-1,3-icosanediol] | 3.2 | 0.352 | 6.6 | 0.438 | >>1 | 0.708 | >>1 | 0.771 | 1.9 | 0.255 | 1.9 | 0.445 | 0.9 | 0.287 | 0.7 | 0.852 | 0.7 | 0.972 | 0.5 | 0.998 | CI [2, 9]: 0.8; Fa [2, 9]: 0.883; CI [2, 10]: 0.2; Fa [2, 10]: 0.993; C.I. (Combination Index) with fenretinide [3]: < 1; CI [4, 8]: 0.5; Fa [4, 8]: 0.996; CI [4, 9]: 0.7; Fa [4, 9]: 0.999; CI [4, 10]: 1.1; Fa [4, 10]: 0.999; CI [4, 11]: 1.5; Fa [4, 11]: 0.9999; C.I. of D-threo-PPMP with fenretinide+L-threo-sphinganine (three drug combination) [5]: < 1; C.I. (Combination Index) with fenretinide [5]: < 1 |
| CCCCCCCCCCCCCCC[C@H](O)[C@@H](N)CO [C18, (2S,3S)-2-amino-1,3-octadecanediol, reference compound] | 0.7 | 0.281 | 0.4 | 0.464 | 0.2 | 0.709 | 0.2 | 0.799 |  |  |  |  | 1.2 | 0.243 | 0.8 | 0.756 | 0.6 | 0.983 | 0.4 | 0.999 | CI [4, 8]: 0.5; Fa [4, 8]: 0.996; CI [4, 9]: 0.3; Fa [4, 9]: 0.9993; CI [4, 10]: 0.4; Fa [4, 10]: 0.9999; Fa [4, 11]: 1 |
| CCCCCCCCCCCCCC[C@H](O)[C@@H](N)CO [C17, (2S,3S)-2-amino-1,3-heptadecanediol] | 0.3 | 0.314 | 0.3 | 0.462 | 0.2 | 0.689 | 0.2 | 0.743 | 1.5 | 0.376 | 1.1 | 0.767 | 1.1 | 0.112 | 1.0 | 0.661 | 0.9 | 0.974 | 1.0 | 0.993 | CI [2, 9]: 0.8; Fa [2, 9]: 0.945; CI [2, 10]: 0.4; Fa [2, 10]: 0.991; C.I. (Combination Index) with fenretinide [3]: < 1; CI [4, 8]: 0.4; Fa [4, 8]: 0.994; CI [4, 9]: 0.4; Fa [4, 9]: 0.999; CI [4, 10]: 0.6; Fa [4, 10]: 0.9997; CI [4, 11]: 0.3; Fa [4, 11]: 1; C.I. of D-threo-PPMP with fenretinide+L-threo-sphinganine (three drug combination) [5]: < 1; C.I. (Combination Index) with fenretinide [5]: < 1 |
| CCCCCCCCC[C@H](O)[C@@H](N)CO [C12] | 1.4 | 0.345 | 2.9 | 0.325 | 5.5 | 0.506 | >>1 | 0.632 | 1.0 | 0.376 | 1.0 | 0.618 | 1.0 | 0.217 | 1.3 | 0.642 | 1.4 | 0.951 | 1.8 | 0.975 | CI [2, 9]: 1.3; Fa [2, 9]: 0.758; CI [2, 10]: 1.1; Fa [2, 10]: 0.925 |
| CCCCCCCCCCCCCCCC[C@H](O)[C@@H](N)CO [C19, (2S,3S)-2-amino-1,3-nonadecanediol] | 1.0 | 0.094 | 1.6 | 0.109 | 1.6 | 0.173 | 1.1 | 0.272 | 1.9 | 0.299 | 1.6 | 0.582 | 1.1 | 0.138 | 1.1 | 0.736 | 1.2 | 0.965 | 0.9 | 0.993 | CI [2, 9]: 0.6; Fa [2, 9]: 0.951; CI [2, 10]: 0.3; Fa [2, 10]: 0.989; C.I. (Combination Index) with fenretinide [3]: < 1; CI [4, 8]: 0.4; Fa [4, 8]: 0.9960; CI [4, 9]: 0.1; Fa [4, 9]: 0.9993; CI [4, 10]: 0.1; Fa [4, 10]: 1; Fa [4, 11]: 1.0000; C.I. of D-threo-PPMP with fenretinide+L-threo-sphinganine (three drug combination) [5]: < 1; C.I. (Combination Index) with fenretinide [5]: < 1 |
